In patent publication US20220193181A1 (priority 2020, published 2022):

Columns and labels:
SARS-CoV-1 = conditions: Vero E6 cells; cited from earlier work
clotting factor X111 = biological target: T1, clotting factor X111 (Homo sapiens, UniProt P00488); conditions: cited from earlier work
T1 sequence (P00488 1-732): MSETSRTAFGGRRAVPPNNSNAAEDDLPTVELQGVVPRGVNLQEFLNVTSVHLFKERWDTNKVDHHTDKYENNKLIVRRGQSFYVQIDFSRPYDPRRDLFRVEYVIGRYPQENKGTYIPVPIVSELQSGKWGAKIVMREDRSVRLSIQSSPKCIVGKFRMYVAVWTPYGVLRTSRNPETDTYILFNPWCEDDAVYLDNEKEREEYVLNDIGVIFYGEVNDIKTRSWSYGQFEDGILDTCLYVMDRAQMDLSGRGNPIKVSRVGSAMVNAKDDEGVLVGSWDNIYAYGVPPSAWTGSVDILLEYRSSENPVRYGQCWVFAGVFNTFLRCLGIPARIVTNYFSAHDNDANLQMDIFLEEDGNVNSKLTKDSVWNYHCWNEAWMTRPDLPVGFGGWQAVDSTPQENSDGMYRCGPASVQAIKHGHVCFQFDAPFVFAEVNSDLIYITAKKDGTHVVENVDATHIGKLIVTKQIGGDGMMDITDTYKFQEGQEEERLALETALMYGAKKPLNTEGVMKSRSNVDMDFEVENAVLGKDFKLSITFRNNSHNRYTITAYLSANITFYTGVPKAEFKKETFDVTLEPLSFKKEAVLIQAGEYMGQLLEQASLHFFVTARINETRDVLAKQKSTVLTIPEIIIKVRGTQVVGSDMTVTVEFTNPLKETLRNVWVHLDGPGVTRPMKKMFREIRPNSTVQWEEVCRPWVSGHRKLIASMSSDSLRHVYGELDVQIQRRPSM

platelet aggregation = conditions: cited from earlier work
vascular inflammation = conditions: previously reported by the inventors; cited from earlier work
GSNO reductase = GSNO reductase (Homo sapiens, UniProt P11766); conditions: cited from earlier work
EAE mice = assay: Adoptive transfer of B cells from N6022-treated mice to EAE mice
SARS-CoV-2 patients = conditions: cited from earlier work
[1] = B cells from N6022-treated EAE mice
[2] = B cells from N6022-treated non-EAE mice

GSNO reductase, sequence (P11766 whole entry): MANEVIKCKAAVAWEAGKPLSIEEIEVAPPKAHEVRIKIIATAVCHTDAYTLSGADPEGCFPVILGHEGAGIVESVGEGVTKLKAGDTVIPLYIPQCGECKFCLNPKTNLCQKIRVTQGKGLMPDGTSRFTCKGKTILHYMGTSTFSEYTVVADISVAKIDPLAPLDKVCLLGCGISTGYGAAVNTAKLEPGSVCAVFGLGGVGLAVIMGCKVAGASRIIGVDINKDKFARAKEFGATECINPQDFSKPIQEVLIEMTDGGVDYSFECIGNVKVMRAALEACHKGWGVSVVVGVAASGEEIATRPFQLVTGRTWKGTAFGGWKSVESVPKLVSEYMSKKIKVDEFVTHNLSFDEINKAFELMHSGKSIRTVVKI

CC(=O)N[C@@H](C(=O)O)C(C)(C)SN=O (racemic) [SNAP, reference compound]
viral protein and vRNA synthesis and replication of SARS-CoV-1 (SARS-CoV-1): inhibit
clot formation (clotting factor X111): inhibited
clotting factor X111 (transglutaminase) activity (clotting factor X111): inhibited

N[C@@H](CCC(=O)N[C@@H](CSN=O)C(=O)NCC(=O)O)C(=O)O [GSNO, S-nitrosoglutathione]
platelet aggregation (platelet aggregation): inhibit
clot formation (clotting factor X111): inhibited
clotting factor X111 (transglutaminase) activity (clotting factor X111): inhibited
vascular inflammation (vascular inflammation): inhibit
vascular integrity (vascular inflammation): protect
Spike S1 induced T cell responses (Th1 and Th17 cells) in spleen (Spike S1 treated mice; greater effects on Th17 cells): down regulated
IL-6 positive B cells in spleen (Spike S1 treated mice; mouse, in vivo): decreased
IL-10 positive B cells in spleen (Spike S1 treated mice; mouse, in vivo): increased
Treg cells in spleen (Spike S1 treated mice; mouse, in vivo): practically no effect

Cc1cc(C(N)=O)ccc1-n1c(CCC(=O)O)ccc1-c1ccc(-n2ccnc2)cc1 [N6022]
GSNO reductase inhibition (GSNO reductase): potent and reversible
vascular inflammation (vascular inflammation): inhibit
vascular integrity (vascular inflammation): protect
TH17 cells in the CNS of recipients (EAE mice; [1]): decreased
blood IL-6 levels of recipients (EAE mice; [1]): decreased
blood IL-10 levels of recipients (EAE mice; [1]): increased
number of Treg cells in the CNS of recipients (EAE mice; [1]): increased
blood cytokine levels and CNS Treg and TH17 cells of recipients (EAE mice; [2]): no significant alterations
disease of recipient EAE mice (EAE mice; [2]): no disease attenuation

TCZ: IL6 receptor antibody that blocks IL-6 signaling
patients in whom the optical lung lesion on CT scan resolved (SARS-CoV-2 patients; in vivo): 90.5%
patients whose lymphocyte counts returned to normal (SARS-CoV-2 patients; in vivo): 53%
patients with improved oxygenation (SARS-CoV-2 patients; in vivo): 75%
reducing fever (SARS-CoV-2 patients; within a few days): effective
